Where a name gives a salt, the structure may show the parent alone. Numbered stars: 1 amine (or outer) side, 2 acyl side, 3 side chain; on linkers, the order of the positions; unused ones are H or OH. Bridge positions count the residues as written; N and C are the ends. Square brackets hold non-standard residues; d marks the D form. Peptide text beside a SMILES is read from it. * marks the point of attachment. hTyr(3S-OH,4S-OH,3'-OSO3H) = N[C@H](C(=O)O)[C@H](O)[C@@H](O)c1ccc(O)c(OS(=O)(=O)O)c1; Orn(4R-OH,5R-OH) = O=C([C@H](C[C@@H](O)[C@@H](O)N[*:3])N[*:1])[*:2]; Pro(3S-OH,4S-Me) = C[C@H]1CN[C@H](C(=O)O)[C@H]1O; X1 = CCCCCOc1ccc(-c2cc(-c3ccc(C(=O)*)cc3)no2)cc1; Gln(3R-OH) = NC(=O)C[C@@H](O)[C@H](N)C(=O)O; Hyp = O=C(O)[C@@H]1C[C@@H](O)CN1
Each compound was assayed on PRKACA-PRKAR2A interaction (SmBiT-PRKACA / LgBiT-PRKAR2A), protein kinase A. Details: 0.5 h, 20 µM; inhibitor.
Set-up: NanoLuc complementation counter-screen in cell extract, PRKACA with PRKAR2A, loss of luminescence, detects NanoLuc interference

Row | SMILES | Inh (PKA)
1 | COc1cc2c3cc1Oc1c(OC)c(OC)cc4c1[C@@H](Cc1cccc(c1)Oc1ccc(c(O)c1)C[C@@H]3N(C)CC2)N(C)CC4 [UM0141561:06, Berbamine hydrochloride] | 0.4662%

Same assay, conditions: counter-screen for NanoLuc interference, 0.5 h, 20 µM, inhibitor, Inh (PKA)

Row | Inh (PKA) | SMILES
2 | 7.081% | CS(=O)(=O)N1CCN(Cc2cc3nc(-c4cccc5[nH]ncc45)nc(N4CCOCC4)c3s2)CC1 [UM0141556:01, GDC-0941 dimethanesulfonate]
3 | 44.92% | COc1ccc(S(=O)(=O)N(CCO)c2ccccc2CN(C)C/C=C/c2ccc(Cl)cc2)cc1 [UM0141574:01, KN-93]
4 | 3.66% | O=C(Cc1ccc(-c2ccc(OCCN3CCOCC3)cc2)cn1)NCc1ccccc1 [UM0141575:01, KX2-391 dihydrochloride]
5 | 9.112% | c1ccc2c(-c3cnn4cc(-c5ccc(N6CCNCC6)cc5)cnc34)ccnc2c1 [UM0141577:01, LDN193189 Hydrochloride]
6 | 0.436% | CCOC(=O)C1=C[C@@H](OC(CC)CC)[C@H](NC(C)=O)[C@@H](N)C1 [UM0141595:01, Oseltamivir]
7 | 0.5825% | Nc1nc2[nH]cc(CCc3ccc(C(=O)N[C@@H](CCC(=O)O)C(=O)O)cc3)c2c(=O)[nH]1 [UM0141598:01, Pemetrexed disodium hemipenta hydrate]
8 | 0.874% | CCCC(CCC)C(=O)O [UM0141598:02, Valproic acid sodium salt (Sodium valproate)]
9 | 2.459% | CCC(CC)[C@H](NC(C)=O)[C@@H]1[C@H](O)[C@@H](C(=O)O)C[C@H]1NC(=N)N [UM0141600:01, Peramivir]
10 | 17.85% | Oc1cccc(-c2nc(N3CCOCC3)c3oc4ncccc4c3n2)c1 [UM0141606:01, PI-103 Hydrochloride]

Same assay, conditions: counter-screen for NanoLuc interference; 0.5 h, 20 µM; inhibitor

Row | Inh (PKA) | SMILES
11 | 5.02% | CC[C@H](C)n1cc(C)c2c(C(=O)NCc3c(C)cc(C)[nH]c3=O)cc(-c3ccc(N4CCNCC4)nc3)cc21 [UM0141557:01, GSK126]
12 | 8.178% | CCCc1cc(C)[nH]c(=O)c1CNC(=O)c1cc(-c2ccnc(N3CCN(C)CC3)c2)cc2c1cnn2C(C)C [UM0141559:01, GSK343]
13 | 4.541% | N=C(N)NC(=O)Cc1c(Cl)cccc1Cl [UM0141560:01, Guanfacine hydrochloride]
14 | 27.19% | O=S(=O)(c1cccc2c(O)nccc12)N1CCCNCC1 [UM0141561:01, Hydroxyfasudil hydrochloride]
15 | 15.66% | O[C@@H](c1cc(C(F)(F)F)nc2c(C(F)(F)F)cccc12)[C@H]1CCCCN1 [UM0141561:02, Mefloquine hydrochloride]
16 | 1.888% | CCCCS(=O)(=O)N[C@@H](Cc1ccc(OCCCCC2CCNCC2)cc1)C(=O)O [UM0141561:03, Tirofiban hydrochloride monohydrate]
17 | 10.91% | N#Cc1ccc2[nH]cc(CCCCN3CCN(c4ccc5oc(C(N)=O)cc5c4)CC3)c2c1 [UM0141561:04, Vilazodone Hydrochloride]
18 | -1.626% | COC(=O)[C@@H](N)CCCNC(=N)N[N+](=O)[O-] [UM0141561:05, L-NAME hydrochloride]
19 | 11.46% | NS(=O)(=O)NCCNc1nonc1C(=Nc1ccc(F)c(Br)c1)NO [UM0141562:01, IDO inhibitor 1]
20 | 8.041% | NS(=O)(=O)NCCNc1nonc1/C(=N/O)Nc1ccc(F)c(Br)c1 [UM0141562:02, INCB-024360]
21 | 6.368% | COc1cc(N2CCOCC2)ccc1NC(=O)c1csc(-c2cccnc2)n1 [UM0141564:01, IRAK inhibitor 6]
22 | 27.82% | Cc1ccc2nc(NC(=O)CSc3nc4c(c(=O)n3-c3ccccc3)SCC4)sc2c1 [UM0141565:01, IWP-2]
23 | 3.268% | COc1cc2ncnc(Nc3ccc(O)cc3)c2cc1OC [UM0141567:01, JANEX-1]
24 | 12.62% | Cc1cc(NC(=O)c2cccc(NC(=O)/C=C/CN(C)C)c2)ccc1Nc1nccc(-c2cccnc2)n1 [UM0141569:01, JNK-IN-8]
25 | 9.964% | O=C1NCCSc2c1sc1ccc(O)cc21 [UM0141570:01, kb NB 142-70]
26 | 7.839% | N=C(N)SCCc1ccc(OCc2ccc([N+](=O)[O-])cc2)cc1 [UM0141571:01, KB-R7943 mesylate]
27 | 11.8% | COc1cc(Oc2ccnc3cc(OC)c(OC)cc23)ccc1NC(=O)NC(C)c1nccs1 (stereo not drawn) [UM0141572:01, Ki20227]
28 | 16.02% | COc1ccc(S(=O)(=O)Nc2ccccc2CN(C)C/C=C/c2ccc(Cl)cc2)cc1 [UM0141573:01, KN-92 phosphate]
29 | 0.904% | CN[C@@H](C)C(=O)N[C@H](C(=O)N1CCC[C@H]1c1nc(C(=O)c2ccc(F)cc2)cs1)C1CCCCC1 [UM0141576:01, LCL161]
30 | 1.236% | COC(=O)N[C@H](C(=O)N1CC2(CC2)C[C@H]1c1nc(-c2ccc3c(c2)C(F)(F)c2cc(-c4ccc5[nH]c([C@@H]6[C@H]7CC[C@H](C7)N6C(=O)[C@@H](NC(=O)OC)C(C)C)nc5c4)ccc2-3)c[nH]1)C(C)C [UM0141578:01, Ledipasvir]
31 | 0.3774% | CC1(C)O[C@H]2CC(=O)OC[C@]23[C@H]2CC[C@@]4(C)[C@H](c5ccoc5)OC(=O)[C@H]5O[C@]54[C@]2(C)C(=O)C[C@@H]13 [UM0141579:01, Limonin]

Row | Inh (PKA) | SMILES
32 | 12.15% | COc1cc(C(=O)N2CCC(N3CCN(C)CC3)CC2)ccc1Nc1ncc2c(n1)N(C)c1ccccc1C(=O)N2C [UM0141580:01, LRRK2-IN-1]
33 | 40.49% | O=C1NC(=O)C(c2cnc3ccccn23)=C1c1cn2c3c(cc(F)cc13)CN(C(=O)N1CCCCC1)CC2 [UM0141581:01, LY2090314]
34 | 33.02% | Cc1ccc(C(=O)Nc2ccc(Oc3cc4cnn(C)c4cc3-c3cn[nH]c3)c(F)c2)c(=O)n1-c1ccc(F)cc1 [UM0141582:01, LY2801653]
35 | 40.12% | C[C@@H](Oc1ccc2[nH]nc(/C=C/c3cnn(CCO)c3)c2c1)c1c(Cl)cncc1Cl [UM0141583:01, LY2874455]
36 | 5.692% | NC(=O)c1cccc2cn(-c3ccc([C@@H]4CCCNC4)cc3)nc12 [UM0141586:01, MK-4827]
37 | 6.735% | C=C[C@@H]1C[C@]1(NC(=O)[C@@H]1C[C@@H]2CN1C(=O)[C@H](C(C)(C)C)NC(=O)O[C@@H]1C[C@H]1CCCCCc1nc3ccc(OC)cc3nc1O2)C(=O)NS(=O)(=O)C1CC1 [UM0141587:01, MK-5172]
38 | 5.314% | COc1c(Cl)cc2c([nH]c3cnccc32)c1NC(=O)c1cccnc1C [UM0141589:01, MLN120B]
39 | 3.843% | Cc1c(O)cccc1C(=O)N[C@@H](CSc1ccccc1)[C@H](O)CN1C[C@H]2CCCC[C@H]2C[C@H]1C(=O)NC(C)(C)C [UM0141590:01, Nelfinavir Mesylate]
40 | 3.406% | CNC(=O)c1c(-c2ccc(F)cc2)oc2cc(N(CCO)S(C)(=O)=O)c(C3CC3)cc12 [UM0141591:01, Nesbuvir]
41 | 80.65% | C[C@H](Cc1ccc(O)c(O)c1)[C@@H](C)Cc1ccc(O)c(O)c1 [UM0141592:01, Nordihydroguaiaretic acid]
42 | 1.334% | CCC(CC)O[C@@H]1C=C(C(=O)O)C[C@H](N)[C@H]1NC(C)=O [UM0141596:01, Oseltamivir acid]
43 | 3.513% | COC(=O)[C@H](Cc1cccc(C(=N)N)c1)[C@@H](C)NC(=O)c1ccc(-c2cc[n+]([O-])cc2)cc1 [UM0141597:01, Otamixaban]
44 | 1.56% | O=C(O)CCCc1ccccc1 [UM0141598:03, Sodium Phenylbutyrate]
45 | 1.284% | OC[C@H]1O[C@@H](n2cnc3c2N=CNC[C@H]3O)C[C@@H]1O [UM0141599:01, Pentostatin]
46 | 66.65% | Cc1nc(Nc2n[nH]c3c2CN(C(=O)N[C@H](CN(C)C)c2ccccc2)C3(C)C)c2sccc2n1 [UM0141601:01, PF-3758309]
47 | 48.77% | Nc1nccc(-c2c(-c3ccc(F)cc3)ncn2C2CCCCC2)n1 [UM0141603:01, PF-670462]
48 | 13.11% | O=C(CCN1CCN(C(=O)OCc2cc(Cl)cc(Cl)c2)CC1)c1ccc2[nH]c(=O)oc2c1 [UM0141604:01, PF-8380]
49 | 1.427% | O=C1NCCc2[nH]c(-c3ccncc3)cc21 [UM0141605:01, PHA-767491]
50 | 14.93% | CNC(=O)c1ccccc1Nc1cc(Nc2ccc(N3CCOCC3)cc2OC)ncc1C(F)(F)F [UM0141607:01, PND-1186]
51 | 31.48% | CC1=CC(=O)C(C(C)C)=C/C1=N/OC(=O)c1ccccc1C [UM0141608:01, Poloxin]
52 | 22.19% | NC(=O)c1cnc(N[C@@H]2CCCC[C@@H]2N)nc1Nc1cccc(-n2nccn2)c1 [UM0141609:01, PRT062607 Hydrochloride]

Row | SMILES | Inh (PKA)
53 | Cn1cc(-c2ccc3c(c2)CCN3C(=O)Cc2cccc(C(F)(F)F)c2)c2c(N)ncnc21 [UM0141558:01, GSK2606414] | 15.1%
54 | C/C(=C\c1csc(C)n1)[C@@H]1C[C@@H]2O[C@]2(C)CCC[C@H](C)[C@H](O)[C@@H](C)C(=O)C(C)(C)[C@@H](O)CC(=O)N1 [UM0141566:01, Ixabepilone] | 1.607%
55 | O=C1CCC[C@@H]2[C@H]3CCCN4CCC[C@@H](CN12)[C@@H]34 [UM0141584:01, Matrine] | 1.794%
56 | CCCCCOc1ccc(-c2cc(-c3ccc(C(=O)N[C@H]4C[C@@H](O)[C@@H](O)NC(=O)[C@@H]5[C@@H](O)[C@@H](C)CN5C(=O)[C@H]([C@H](O)CC(N)=O)NC(=O)[C@H]([C@H](O)[C@@H](O)c5ccc(O)c(OS(=O)(=O)O)c5)NC(=O)[C@@H]5C[C@@H](O)CN5C(=O)[C@H]([C@@H](C)O)NC4=O)cc3)no2)cc1 [UM0141585:01, Micafungin sodium] (X1-[Orn(4R-OH,5R-OH)]T[Hyp][hTyr(3S-OH,4S-OH,3'-OSO3H)][Gln(3R-OH)][Pro(3S-OH,4S-Me)]; lactam 1-C) | 7.755%
57 | CC(C)OC(=O)[C@H](C)N[P@](=O)(OC[C@H]1O[C@@H](n2ccc(=O)[nH]c2=O)[C@](C)(F)[C@@H]1O)Oc1ccccc1 [UM0141610:01, PSI-7977] | 2.04%
